Test results from patent US20130040882A1, “USE OF FIBROBLAST GROWTH FACTOR FRAGMENTS” (NOVARTIS AG, priority 2003, published 2013).

Tested on: uterine gene expression
Test: Gene expression profiling (HGU133A) in the uterus of ovariectomized monkeys treated with estradiol, tamoxifen or raloxifene
Type: in vivo, cynomolgus monkeys (Macaca fascicularis)
Conditions: uterus, OVX monkeys

In the case of C#C[C@]1(O)CC[C@H]2[C@@H]3CCc4cc(O)ccc4[C@H]3CC[C@@]21C [EE], the “Fold change relative to SHAM control: Insulin-like growth factor binding protein 2, 36 kda” value is reported as 4.4 fold, the “Fold change relative to SHAM control: Insulin-like growth factor binding protein 5” value is reported as 2.8 fold and the “Fold change relative to SHAM control: Integrin, beta 5” value is reported as 1.0 fold. The “Fold change relative to SHAM control: Intercrine-alpha, mrna sequence” value was 0.9 fold, the “Fold change relative to SHAM control: LDL receptor adaptor protein” value was 0.8 fold and the “Fold change relative to SHAM control: LIM and senescent cell antigen-like domains 1” value was 1.4 fold. For the same molecule, the “Fold change relative to SHAM control: Laminin, beta 1” value was 1.0 fold, the “Fold change relative to SHAM control: Latent transforming growth factor beta binding protein 1” value was 1.7 fold and the “Fold change relative to SHAM control: Matrix metalloproteinase 19” value was 1.2 fold. The “Fold change relative to SHAM control: Mitogen-activated protein kinase kinase kinase kinase 4” value was 0.9 fold, the “Fold change relative to SHAM control: Nidogen (enactin)” value was 2.6 fold and the “Fold change relative to SHAM control: Osteoglycin (osteoinductive factor, mimecan)” value was 1.0 fold. The “Fold change relative to SHAM control: Peroxiredoxin 1” value was 1.6 fold, the “Fold change relative to SHAM control: Phosphatase and tensin homolog (mutated in multiple advanced cancers 1)” value was 1.2 fold and the “Fold change relative to SHAM control: Phospholipid transfer protein” value was 1.3 fold. For the same molecule, the “Fold change relative to SHAM control: Pituitary tumour-transforming 1 interacting protein” value was 0.9 fold, the “Fold change relative to SHAM control: Procollagen C-endopeptidase enhancer” value was 1.5 fold and the “Fold change relative to SHAM control: Procollagen-proline, 2-oxoglutarate 4-dioxygenase (proline 4-hydroxylase), alpha polypeptide II” value was 1.7 fold. For the same molecule, the “Fold change relative to SHAM control: Progesterone receptor” value was 3.2 fold, the “Fold change relative to SHAM control: Protein tyrosine kinase 9” value was 1.3 fold and the “Fold change relative to SHAM control: SET domain, bifurcated 1” value was 2.3 fold. For the same molecule, the “Fold change relative to SHAM control: SPARC-like 1 (mast9, hevin)” value was 1.5 fold, the “Fold change relative to SHAM control: Secreted frizzled-related protein 1” value was 3.6 fold and the “Fold change relative to SHAM control: Secreted frizzled-related protein 4” value was 1.9 fold. For the same molecule, the “Fold change relative to SHAM control: Secreted protein, acidic, cysteine-rich (osteonectin)” value was 1.4 fold, the “Fold change relative to SHAM control: Serine (or cysteine) proteinase inhibitor, clade H (heat shock protein 47), member 1, (collagen binding protein 1)” value was 1.6 fold and the “Fold change relative to SHAM control: Solute carrier family 22 (organic cation transporter), member 1-like” value was 1.6 fold. The “Fold change relative to SHAM control: Solute carrier family 25 (mitochondrial carrier; adenine nucleotide translocator), member 5” value was 1.7 fold, the “Fold change relative to SHAM control: Stem cell growth factor; lymphocyte secreted C-type lectin” value was 1.4 fold and the “Fold change relative to SHAM control: Tenascin C (hexabrachion)” value was 0.9 fold. The “Fold change relative to SHAM control: Testis Enhanced Gene Transcript (Bax Inhibitor 1)” value was 1.8 fold, the “Fold change relative to SHAM control: Thioredoxin interacting protein” value was 0.5 fold and the “Fold change relative to SHAM control: Transforming growth factor, beta-induced, 68 kda” value was 0.8 fold. The “Fold change relative to SHAM control: Ubiquinol-cytochrome c reductase, Rieske iron-sulfur polypeptide 1” value was 1.1 fold, the “Fold change relative to SHAM control: Wingless-type MMTV integration site family, member 2B” value was 1.5 fold and the “Fold change relative to SHAM control: Wingless-type MMTV integration site family, member 16” value was 0.9 fold. For the same molecule, the “Fold change relative to OVX: Insulin receptor” value (Table 46) was 0.8 fold, the “Fold change relative to SHAM control: Insulin receptor” value (Table 46) was 1.2 fold and the “Fold change relative to OVX: Insulin receptor” value (Table 51) was 0.8 fold. The “Fold change relative to SHAM control: Insulin receptor” value (Table 51) was 1.2 fold, the “Fold change relative to OVX: Fibronectin 1” value (entry with OVX average 39) was 1.6 fold and the “Fold change relative to OVX: Bone morphogenetic protein 1” value (entry with OVX average 79) was 2.6 fold. The “Fold change relative to OVX: Bone morphogenetic protein 1” value (entry with OVX average 93) was 2.9 fold, the “Fold change relative to OVX: Insulin-like growth factor 1 (somatomedin C)” value (shortened to “Fold change relative to OVX … (somatomedin C)”) (entry with OVX average 102) was 5.3 fold and the “Fold change relative to OVX: Fibrillin 1 (Marfan syndrome)” value (entry with OVX average 124) was 2.2 fold. For the same molecule, the “Fold change relative to OVX: Collagen, type I, alpha 2” value (entry with OVX average 154) was 13.2 fold, the “Fold change relative to OVX … (somatomedin C)” value (entry with OVX average 156) was 6.9 fold and the “Fold change relative to OVX: Solute carrier family 2 (facilitated glucose/fructose transporter), member 5” value (entry with OVX average 171) was 4.4 fold. The “Fold change relative to OVX: Solute carrier family 2 (facilitated glucose/fructose transporter), member 5” value (entry with OVX average 176) was 3.5 fold, the “Fold change relative to OVX: Collagen, type IV, alpha 1” value (entry with OVX average 182) was 4.3 fold and the “Fold change relative to OVX: Cyclin-dependent kinase inhibitor 1C (p57, Kip2)” value (entry with OVX average 224) was 0.5 fold. For the same molecule, the “Fold change relative to OVX … (somatomedin C)” value (entry with OVX average 310) was 6.3 fold, the “Fold change relative to OVX: Fibronectin 1” value (entry with OVX average 419) was 2.4 fold and the “Fold change relative to OVX: Cyclin-dependent kinase inhibitor 1C (p57, Kip2)” value (entry with OVX average 527) was 0.4 fold. For the same molecule, the “Fold change relative to OVX: Fibronectin 1” value (entry with OVX average 586) was 2.1 fold, the “Fold change relative to OVX: Fibronectin 1” value (entry with OVX average 648) was 1.9 fold and the “Fold change relative to OVX: Collagen, type IV, alpha 1” value (entry with OVX average 690) was 3.7 fold. The “Fold change relative to OVX: Fibronectin 1” value (entry with OVX average 757) was 1.8 fold, the “Fold change relative to OVX: Cyclin-dependent kinase inhibitor 1C (p57, Kip2)” value (entry with OVX average 762) was 0.5 fold and the “Fold change relative to OVX: ATP synthase, H+ transporting, mitochondrial F0 complex, subunit c (subunit 9) isoform 3” value (entry with OVX average 811) was 2.0 fold. The “Fold change relative to OVX: Fibrillin 1 (Marfan syndrome)” value (entry with OVX average 874) was 3.5 fold, the “Fold change relative to OVX: ATP synthase, H+ transporting, mitochondrial F0 complex, subunit c (subunit 9) isoform 3” value (entry with OVX average 1007) was 2.0 fold and the “Fold change relative to OVX: Collagen, type III, alpha 1 (Ehlers-Danlos syndrome type IV, autosomal dominant)” value (entry with OVX average 1084) was 6.8 fold. The “Fold change relative to OVX: Collagen, type I, alpha 2” value (entry with OVX average 2757) was 5.1 fold, the “Fold change relative to OVX: Collagen, type III, alpha 1 (Ehlers-Danlos syndrome type IV, autosomal dominant)” value (entry with OVX average 3445) was 4.1 fold and the “Fold change relative to OVX: H3 histone, family 3A” value (entry with OVX average 9495) was 1.5 fold. For the same molecule, the “Fold change relative to OVX: H3 histone, family 3A” value (entry with OVX average 9692) was 1.4 fold, the “Fold change relative to SHAM control: Fibronectin 1” value (entry with SHAM average 100) was 0.6 fold and the “Fold change relative to SHAM control: Bone morphogenetic protein 1” value (entry with SHAM average 143) was 1.4 fold. For the same molecule, the “Fold change relative to SHAM control: Cyclin-dependent kinase inhibitor 1C (p57, Kip2)” value (entry with SHAM average 201) was 0.6 fold, the “Fold change relative to SHAM control: Bone morphogenetic protein 1” value (entry with SHAM average 205) was 1.3 fold and the “Fold change relative to SHAM control: Insulin-like growth factor 1 (somatomedin C)” value (entry with SHAM average 226) was 2.4 fold. For the same molecule, the “Fold change relative to SHAM control: Fibrillin 1 (Marfan syndrome)” value (entry with SHAM average 236) was 1.2 fold, the “Fold change relative to SHAM control: Solute carrier family 2 (facilitated glucose/fructose transporter), member 5” value (entry with SHAM average 291) was 2.1 fold and the “Fold change relative to SHAM control: Solute carrier family 2 (facilitated glucose/fructose transporter), member 5” value (entry with SHAM average 317) was 2.4 fold. The “Fold change relative to SHAM control: Insulin-like growth factor 1 (somatomedin C)” value (entry with SHAM average 417) was 2.6 fold, the “Fold change relative to SHAM control: Collagen, type IV, alpha 1” value (entry with SHAM average 436) was 1.8 fold and the “Fold change relative to SHAM control: Cyclin-dependent kinase inhibitor 1C (p57, Kip2)” value (entry with SHAM average 459) was 0.5 fold. For the same molecule, the “Fold change relative to SHAM control: Collagen, type I, alpha 2” value (entry with SHAM average 493) was 4.1 fold, the “Fold change relative to SHAM control: Insulin-like growth factor 1 (somatomedin C)” value (entry with SHAM average 581) was 3.4 fold and the “Fold change relative to SHAM control: Cyclin-dependent kinase inhibitor 1C (p57, Kip2)” value (entry with SHAM average 660) was 0.5 fold. The “Fold change relative to SHAM control: Fibronectin 1” value (entry with SHAM average 920) was 1.1 fold, the “Fold change relative to SHAM control: ATP synthase, H+ transporting, mitochondrial F0 complex, subunit c (subunit 9) isoform 3” value (entry with SHAM average 1045) was 1.6 fold and the “Fold change relative to SHAM control: Fibronectin 1” value (entry with SHAM average 1089) was 1.1 fold. The “Fold change relative to SHAM control: Collagen, type IV, alpha 1” value (entry with SHAM average 1143) was 2.2 fold, the “Fold change relative to SHAM control: Fibronectin 1” value (entry with SHAM average 1288) was 0.9 fold and the “Fold change relative to SHAM control: Fibronectin 1” value (entry with SHAM average 1301) was 1.1 fold. The “Fold change relative to SHAM control: ATP synthase, H+ transporting, mitochondrial F0 complex, subunit c (subunit 9) isoform 3” value (entry with SHAM average 1355) was 1.5 fold, the “Fold change relative to SHAM control: Fibrillin 1 (Marfan syndrome)” value (entry with SHAM average 1388) was 2.2 fold and the “Fold change relative to SHAM control: Collagen, type III, alpha 1 (Ehlers-Danlos syndrome type IV, autosomal dominant)” value (entry with SHAM average 2992) was 2.5 fold. The “Fold change relative to SHAM control: Collagen, type III, alpha 1 (Ehlers-Danlos syndrome type IV, autosomal dominant)” value (entry with SHAM average 7354) was 1.9 fold, the “Fold change relative to SHAM control: Collagen, type I, alpha 2” value (entry with SHAM average 7758) was 1.8 fold and the “Fold change relative to SHAM control: H3 histone, family 3A” value (entry with SHAM average 9408) was 1.5 fold. The “Fold change relative to SHAM control: H3 histone, family 3A” value (entry with SHAM average 10239) was 1.4 fold.
